Measured values published in patent US9616053B2, “Indolin-2-one or pyrrolo-pyridin/pyrimidin-2-one derivatives” (Hoffmann-La Roche Inc., priority 2013, dated 2017).
Structures can show the parent of a compound that is named as a salt.

system: L-687,414-induced hyperlocomotion; experiment: L-687,414-induced hyperlocomotion (Digiscan locomotor activity); assay type: in vivo, mouse; conditions: Mus musculus; dose ip 20 mg/kg, at the same time as s.c. 50 mg/kg L-687,414; mice
Excerpt: The authors described that hyperlocomotion induced by L-687,414 was inhibited by a series of known antipsychotic drugs. […] These findings predict antipsychotic activity for the present compounds, making them useful for the treatment of positive (psychosis) and negative symptoms of schizophrenia, substance abuse, alcohol and drug addiction, obsessive-compulsive disorders, cognitive impairment, bipolar disorders, mood disorders, major depression, resistant depression, anxiety disorders, Alzheimer's disease, autism, Parkinson's disease, chronic pain, borderline personality disorder, sleep disturbances, chronic fatigue syndrome, stiffness, antiinflammatory effects in arthritis and balance problems.
The described compounds of formula I reduce L-687,414-induced hyperlocomotion. This was assessed by using a computerized Digiscan 16 Animal Activity Monitoring System (Omnitech Electronics, Columbus, Ohio) to quantify locomotor activity. Animals were kept under a 12 h light/dark cycle and experiments were performed during the light period. Each activity monitoring chamber consisted of a Plexiglas box (41×41×28 cm; W×L×H) with sawdust bedding on the floor surrounded by invisible horizontal and vertical infrared sensor beams. The test boxes were divided by a Plexiglas cross providing each mouse with 20×20 cm of moving space. Cages were connected to a Digiscan Analyzer linked to a computer that constantly collected the beam status information. Records of photocell beam interruptions for individual animals were taken every 5 min over the duration of the experimental session and the sum of the first 6 periods was used as the final parameter. Compounds were administered either p.o. 15 min before a s.c. injection of 50 mg/kg of L-687,414, or i.p. at the same time as a s.c. injection of 50 mg/kg of L-687,414. Mice were then transferred from their home cage to the recording chambers for a 15-min habituation phase allowing free exploration of the new environment. Horizontal activity was then recorded for a 30-min time period. The % inhibition of L-687,414-induced hyperlocomotion was calculated according to the equation: ((Veh+L-687,414 horizontal activity−drug+L-687,414 horizontal activity)Veh+L-687,414 horizontal activity)×100
ID50 values, defined as doses of each compound producing 50% inhibition of L-687,414-induced hyperlocomotion, were calculated by linear regression analysis of a dose-response data using an Excel-based computer-fitting program.
As data was not presupposed to be normally distributed, groups treated with test compounds were statistically compared with the control (vehicle-treated) group using one-tailed Mann Whitney U tests. In statistics, the Mann-Whitney Utest (also called the Mann-Whitney-Wilcoxon (MWW) or Wilcoxon rank-sum test) is a non-parametric statistical hypothesis test for assessing whether one of two samples of independent observations tends to have larger values than the other. It is one of the most well-known non-parametric significance tests. […] P values given in table 1 are one-tailed since only decreases in locomotion were expected and tested for (Mann, H. B., Whitney, D. R. (1947), “On a Test of Whether one of Two Random Variables is Stochastically Larger than the Other”, Annals of Mathematical Statistics, 18 (1), 50-60).

Structure (SMILES) | inhibition at 20 mg/kg
CN1C(=O)C(C)(C)c2ccc(-c3ccc(C4CC4)nn3)cc21 [Example 79, 6-(6-Cyclopropylpyridazin-3-yl)-1,3,3-trimethyl-indolin-2-one] | 62.5%

same assay, conditions: Mus musculus; dose ip 30 mg/kg, at the same time as s.c. 50 mg/kg L-687,414; mice

Structure (SMILES) | inhibition at 30 mg/kg
CN1C(=O)C(C)(C)c2ccc(-c3cccnc3)cc21 [Example 3, 1,3,3-Trimethyl-6-(pyridin-3-yl)indolin-2-one] | 53.4%
CN1C(=O)C(C)(C)c2ccc(-c3cncnc3)cc21 [Example 4, 1,3,3-Trimethyl-6-(pyrimidin-5-yl)indolin-2-one] | 74.6%
CC1(C)C(=O)Nc2cc(-c3cncnc3)ccc21 [Example 8, 3,3-Dimethyl-6-(pyrimidin-5-yl)indolin-2-one] | 52.5%
CN1C(=O)C(C)(C)c2ccc(-c3cnc(N)nc3)cc21 [Example 10, 6-(2-Aminopyrimidin-5-yl)-1,3,3-trimethylindolin-2-one] | 97.1%
CN(C)c1ncc(-c2ccc3c(c2)N(C)C(=O)C3(C)C)cn1 [Example 11, 6-(2-(Dimethylamino)pyrimidin-5-yl)-1,3,3-trimethylindolin-2-one] | 72.2%
Cc1ncc(-c2ccc3c(c2)N(C)C(=O)C3(C)C)cn1 [Example 12, 1,3,3-Trimethyl-6-(2-methylpyrimidin-5-yl)indolin-2-one] | 93.7%
CCc1ncncc1-c1ccc2c(c1)N(C)C(=O)C2(C)C [Example 14, 6-(4-Ethylpyrimidin-5-yl)-1,3,3-trimethylindolin-2-one] | 66.4%
CC1(C)C(=O)Nc2cc(-c3cnc(N)nc3)ccc21 [Example 16, 6-(2-Aminopyrimidin-5-yl)-3,3-dimethylindolin-2-one] | 89.4%
CC1(C)C(=O)Nc2cc(-c3ccnnc3)ccc21 [Example 17, 3,3-Dimethyl-6-(pyridazin-4-yl)indolin-2-one] | 66.7%
Cc1ncccc1-c1ccc2c(c1)NC(=O)C2(C)C [Example 19, 3,3-Dimethyl-6-(2-methylpyridin-3-yl)indolin-2-one] | 61.6%
Cc1cnccc1-c1ccc2c(c1)NC(=O)C2(C)C [Example 20, 3,3-Dimethyl-6-(3-methylpyridin-4-yl)indolin-2-one] | 47.5%
CN1C(=O)C(C)(C)c2ccc(-c3cnc4c(c3)CCC4)cc21 [Example 23, 6-(6,7-Dihydro-5H-cyclopenta[b]pyridin-3-yl)-1,3,3-trimethylindolin-2-one] | 81.6%
Cc1cncc(C)c1-c1ccc2c(c1)N(C)C(=O)C2(C)C [Example 28, 6-(3,5-Dimethyl-pyridin-4-yl)-1,3,3-trimethyl-1,3-dihydro-indol-2-one formate] | 68.4%
CN1C(=O)C(C)(C)c2ccc(-c3ccc4nccn4c3)cc21 [Example 30, 6-(Imidazo[1,2-a]pyridin-6-yl)-1,3,3-trimethylindolin-2-one] | 49.1%
Cc1ncnc(C)c1-c1ccc2c(c1)N(C)C(=O)C2(C)C [Example 31, 6-(4,6-Dimethyl-pyrimidin-5-yl)-1,3,3-trimethyl-1,3-dihydro-indol-2-one] | 81.2%
CN1C(=O)C(C)(C)c2ccc(-c3cccnc3)c(F)c21 [Example 34, 7-Fluoro-1,3,3-trimethyl-6-(pyridin-3-yl)indolin-2-one] | 56.9%

Structure (SMILES) | inhibition at 30 mg/kg
Cc1c(-c2cccnc2)ccc2c1N(C)C(=O)C2(C)C [Example 36, 1,3,3,7-Tetramethyl-6-(pyridin-3-yl)indolin-2-one] | 79.3%
CN1C(=O)C(C)(C)c2cc(F)c(-c3ccncc3)cc21 [Example 38, 5-Fluoro-1,3,3-trimethyl-6-(pyridin-4-yl)indolin-2-one] | 57.3%
CN1C(=O)C(C)(C)c2ccc(-c3ccncc3)c(F)c21 [Example 39, 7-Fluoro-1,3,3-trimethyl-6-pyridin-4-yl-1,3-dihydro-indol-2-one] | 77.6%
CN1C(=O)C(C)(C)c2cc(F)c(-c3cncnc3)c(F)c21 [Example 43, 5,7-Difluoro-1,3,3-trimethyl-6-pyrimidin-5-yl-1,3-dihydro-indol-2-one] | 60.5%
Cc1ncc(-c2ccc3c(c2)N(CC2CCC2)C(=O)C3(C)C)cn1 [Example 48, 1-(Cyclobutylmethyl)-3,3-dimethyl-6-(2-methylpyrimidin-5-yl)indolin-2-one] | 68.6%
Cc1ncc(-c2ccc3c(c2)N(CCCOC2CC2)C(=O)C3(C)C)cn1 [Example 50, 1-(3-Cyclopropoxypropyl)-3,3-dimethyl-6-(2-methylpyrimidin-5-yl)indolin-2-one] | 86.3%
Cc1ncc(-c2ccc3c(c2)N(CCCO)C(=O)C3(C)C)cn1 [Example 56, 1-(3-Hydroxypropyl)-3,3-dimethyl-6-(2-methylpyrimidin-5-yl)indolin-2-one] | 93.9%
Cc1ncc(-c2ccc3c(c2)N(CCS(C)(=O)=O)C(=O)C3(C)C)cn1 [Example 57] | 79.9%
Cc1noc(-c2ccc3c(c2)N(C)C(=O)C3(C)C)n1 [Example 59, 1,3,3-Trimethyl-6-(3-methyl-1,2,4-oxadiazol-5-yl)indolin-2-one] | 45.2%
Cc1noc(-c2ccc3c(c2)NC(=O)C3(C)C)n1 [Example 60, 3,3-Dimethyl-6-(3-methyl-1,2,4-oxadiazol-5-yl)indolin-2-one] | 24%
Cc1cn(-c2ccc3c(c2)NC(=O)C3(C)C)cn1 [Example 63, 3,3-Dimethyl-6-(4-methyl-1H-imidazol-1-yl)indolin-2-one] | 68.9%
Cc1ncc(-c2ccc3c(c2)N(C)C(=O)C3(C)C)[nH]1 [Example 67, 1,3,3-Trimethyl-6-(2-methyl-1H-imidazol-5-yl)indolin-2-one] | 42.6%
Cc1nnc(-c2ccc3c(c2)N(C)C(=O)C3(C)C)s1 [Example 72, 1,3,3-Trimethyl-6-(5-methyl-1,3,4-thiadiazol-2-yl)indolin-2-one] | 67.4%
Cc1cc(-c2cc3c(cn2)C(C)(C)C(=O)N3C)ccn1 [Example 83, 1,3,3-Trimethyl-6-(2-methyl-4-pyridyl)pyrrolo[3,2-c]pyridin-2-one] | 53%
Cn1cc(-c2ccc3c(c2)NC(=O)C3(C)C)cn1 [Example 87, 3,3-Dimethyl-6-(1-methyl-1H-pyrazol-4-yl)indolin-2-one] | 82.8%

same assay, conditions: dose producing 50% inhibition of L-687,414-induced hyperlocomotion; p.o. 15 min before s.c. 50 mg/kg L-687,414; mice

Structure (SMILES) | ID50 po
CC1(C)C(=O)Nc2cc(-c3ccncc3)ccc21 [Example 7, 3,3-Dimethyl-6-(pyridin-4-yl)indolin-2-one] | 29.2 mg/kg
Cc1ncc(-c2ccc3c(c2)NC(=O)C3(C)C)cn1 [Example 21, 3,3-Dimethyl-6-(2-methylpyrimidin-5-yl)indolin-2-one] | 1.62 mg/kg
CN1C(=O)C(C)(C)c2ccc(-c3cnc4c(c3)NCCO4)cc21 [Example 25, 6-(2,3-Dihydro-1H-pyrido[2,3-b][1,4]oxazin-7-yl)-1,3,3-trimethylindolin-2-one] | 3.03 mg/kg
Cc1ncc(-c2ccc3c(c2)N(CCO)C(=O)C3(C)C)cn1 [Example 55, 1-(2-Hydroxyethyl)-3,3-dimethyl-6-(2-methylpyrimidin-5-yl)indolin-2-one] | 0.88 mg/kg
CN1C(=O)C(C)(C)c2ccc(-n3ccnc3)cc21 [Example 61, 6-(1H-Imidazol-1-yl)-1,3,3-trimethylindolin-2-one] | 10.71 mg/kg
